Bounds are passed on as bounds.

A word on the melting point: it is the temperature of the solid-liquid transition.

On to `CC(C)(C)c1cc(C=C2SCN(CCO)C2=O)cc(C(C)(C)C)c1O`, for which the melting point was 131 to 135 °C.

`CCCCOC(=O)NC1C(=O)N(OCC(=O)OC(c2ccccc2)c2ccccc2)C1C` (configuration not stated) returned a melting point of 105 to 108 °C. For the compound `CS(=O)(=O)c1ccc(-c2ccccc2-c2ccc(Cl)cc2)cc1`, the melting point lay in the range of 180 to 181 °C.

On to `CC(C)(C)OC(=O)N(CC(=O)OCN1C(=O)CCC(N2C(=O)c3ccccc3C2=O)C1=O)C(=O)CN` (configuration not stated), for which the melting point fell in the range of 178 to 181 °C. Compound `CCN1CCCC1CNC(=O)c1cc(S(=O)(=O)NC)cc2c1OCCO2` (configuration not stated) returned a melting point of 136 to 137 °C.

On to `COc1ccc(NS(=O)(=O)c2cccc3ccccc23)cc1OCCc1ccc2ccccc2c1`, for which the melting point was 127 to 131 °C. Under `CC(C)(C)OC(=O)N1CCC(C#N)(c2cccc(C(F)(F)F)c2)CC1` stands 72 to 73 °C; under `O=C(O)c1nc(-c2cc(Oc3ccc(Cl)cc3Cl)c(O)cc2Cl)no1`, 115 °C; under `Cc1nc(Oc2ccc(Cl)cc2)c2ccccc2c1CC(=O)O`, 192 to 195 °C. As to `COc1ccc(C(=O)Nc2ccc(-c3ccc(S(C)=O)cc3)cc2)cc1CCCN(C)C` (configuration not stated), the melting point was in the range of 190 to 192 °C. With `O=C(NC1CCCCC1)NS(=O)(=O)c1cnccc1NC1CCCCCC1`, the melting point lay in the range of 165 to 169 °C. `CCCC(=O)c1ccc(C(=O)O)cn1` gave a melting point of 128 to 130 °C. Turning to `CNC(=O)ON=C1N=C(C(C)C)C(C)(C)S1`, the melting point was in the range of 89 to 91 °C. Under `Cc1ccc(C(=O)c2cnn3c(-c4cccc(NC(=O)C5CC5)c4)ccnc23)s1` stands 243 to 245 °C.

As to `CCCc1c(OCCCSc2nc3ccc(C(=O)O)cc3[nH]2)ccc(C(C)=O)c1OC(C)=O`, the melting point lay within 85 to 87 °C. In the case of `CC(C)(C)NC(=O)Nc1nc2nc(N)ncc2cc1-c1cccnc1`, the melting point is more than 300 °C. In turn, `Cc1cc(C(F)(F)F)nn1CC(=O)N1CCC(c2nc(C3=NOC(c4ccccc4Cl)C3)cs2)CC1` (configuration not stated) showed a melting point of 115 to 122 °C. Compound `Cc1cc2c(s1)Oc1cccc(C)c1NC2=O` gave a melting point of 198 to 200 °C. For `Cc1nn(-c2cc(Oc3ccc([N+](=O)[O-])cc3)c(Cl)cc2F)c(=O)n1C(F)F`, the melting point was in the range of 115 to 117 °C. As for `ON=CCc1cccs1`, the melting point came to 92 °C. Under `CCCNC(=O)NCCCCCN1CCC(CNC(=O)c2cc(Cl)c(N)cc2OC)CC1` stands 144 to 147 °C; under `C=C(C)Cn1c(=O)n(C)c(=O)c2cn(Cc3cccc4ccccc34)nc21`, 187 to 189 °C; under `CN(C)C1CC2=CNC=C3C=C(C#N)OCC1=C32` (configuration not stated), 205 to 207 °C.

In turn, `COc1cc(/C=C/C(=O)CC(=O)/C=C/c2ccc(O)cc2Cl)ccc1O` registered a melting point of 185 to 192 °C.

Take `O=Cc1cccn1-c1ccc2ccc3[nH]c(=O)c(=O)[nH]c3c2c1`: the melting point was more than 250 °C. For `CN1CC(=O)N2[C@H](c3ccc(O)c(O)c3)c3[nH]c4ccccc4c3C[C@@H]2C1=O`, the melting point was 224 to 226 °C.

The compound `O=C(OC1CCCC1)c1ncn2c1[C@@H]1CCCN1C(=O)c1c(Cl)cccc1-2` returned a melting point of 210 to 212 °C. Under `N#CC(C#N)=C1N(CCN2CCCCC2)CCN1CCN1CCCCC1` stands 104 to 106 °C; under `COC(=O)C(=O)c1ccc(OCCOc2ccc(Oc3ccccc3)cc2)cc1`, 97 to 98 °C; under `COC[C@H]1CN(c2coc3cc(C(=O)OC)ccc23)C(=O)O1`, 116 °C. In the case of `CCn1c(=O)c(-c2c(Cl)cccc2Cl)cc2cnc(NCCCN3CCN(C)CC3)nc21`, the melting point was in the range of 126 to 128 °C.

With `CC(C)c1occc1S(=O)(=O)c1ccc(O)cc1`, the melting point amounted to 131 °C. With `Cn1ncnc1COc1nc2c(cc1C1CCC1)nnn2-c1c(F)cccc1F`, the melting point is 140 to 144 °C. Turning to `N#CC(=Cc1ccc(Cl)cc1)c1c(Cl)cc(N2N=CCNC2=O)cc1Cl`, the melting point is 83 to 85 °C. Compound `CN1CCC(C(=O)O)(S(=O)(=O)c2ccc(Oc3ccc(Cl)cc3)cc2)CC1` came in with a melting point of 185 °C. As for `O=C(O)CCc1ccc(CCNC(=O)C2Cc3ccccc3N2S(=O)(=O)c2ccc(-c3cccc(C(F)(F)F)c3)cc2)cc1` (configuration not stated), the figure is 86 °C; as for `CCCN(CCN1CCN(C(=O)c2cc3ccccc3[nH]2)CC1)C1CCc2c(O)cccc2C1` (configuration not stated), 169 to 170 °C.

For the compound `CC1(C)Oc2c(c(=O)n(Cc3ccccc3)c3ccccc23)[C@@H](NC(=O)CCCCl)[C@@H]1O` (relative stereo), the melting point lay within 176 to 178 °C. `CC(C)C1N2C=CC=CC2=CC1(C=C(Br)Br)c1ccc(F)cc1` (configuration not stated) yielded a melting point of 134 to 135 °C. As for `O=C(C=Cc1ccccc1)NN1CC(=O)NC1=O`, the melting point was 276 to 278 °C. In turn, `CC(C)(C)OC(=O)[C@@H]1CCCN2C(=O)CC[C@H](NS(C)(=O)=O)C(=O)N12` displayed a melting point of 68 to 70 °C. Consider `CCCCCCCCCOC1CCC(=O)N1` (configuration not stated), for which the melting point lay in the range of 46 to 48 °C. The compound `CCN(CC)OP(=O)(Oc1ccccc1)Oc1ccccc1` showed a melting point of 51 to 53 °C. For `CCOP(=O)(OCC)Oc1ccc(/C=C2/C(=O)Nc3cc(OC)c(OC)cc32)cc1`, the melting point is 139 to 141 °C. Take `CNc1nc(-c2cccc(-c3cncc(OC)c3)c2)c2cc(OC)c(OC)cc2n1`: the melting point was in the range of 225 to 227 °C.

On to `O=C1NN=C(c2ccccc2)c2c[nH]c3cccc1c23`, for which the melting point lay within 177 to 179 °C. `CS(=O)(=O)c1ccc(-c2cnn(-c3cccc(S(C)(=O)=O)c3)c(=O)c2-c2ccc(F)cc2)cc1` came in with a melting point of 141 to 142 °C. Compound `FCC(F)(F)Sc1nc(-c2ccccc2)c(-c2ccccc2)[nH]1` yielded a melting point of 225 to 226 °C. In the case of `CCOC(=O)Oc1ccc(S(=O)(=O)N2c3cc(C(F)(F)F)ccc3-n3cccc3C2CC)cc1` (configuration not stated), the melting point is 88 to 90 °C. With `C[C@@H]1C(=O)c2ccccc2O[C@H]1c1ccccc1` (relative stereo), the melting point fell in the range of 99 to 100 °C. In turn, `CC(=Cc1ccc(OCc2cccc(Cl)c2)cc1)[N+](=O)[O-]` displayed a melting point of 117 to 118 °C. For `CCCCCCCCCCCCCCCCCCOc1cc(N)cc(OC(C)=O)c1`, the melting point lay in the range of 73 to 74 °C. In turn, `O=C1C2CCCN2c2ncccc2N1Cc1ccccc1` (configuration not stated) showed a melting point of 222 to 225 °C.

`COc1ccc(C(=O)Nc2c(Cl)cncc2Cl)c2c3cc(Cl)ccc3n(Cc3ccc(F)cc3)c12` had a melting point of 249 to 250 °C.

Compound `CCCCCCCNC(=O)CCCCO` had a melting point of 53 to 54 °C. Turning to `CC(C)(C)OC(=O)NCCCn1c2c(c3ccc(NCC(=O)O)cc3c1=O)C(=O)c1ccccc1-2`, the melting point fell in the range of 190 to 192 °C. On to `COc1ccc2cccc(C(CNC(C)=O)COS(C)(=O)=O)c2c1` (configuration not stated), for which the melting point lay in the range of 104 to 106 °C.

Compound `Nc1cc2c3c(cc(N)cc3c1)C(=O)N(O)C2=O` showed a melting point of 329 to 336 °C. Turning to `CC1(CCOC2CCCCO2)C(=O)NNC1=O` (configuration not stated), the melting point lay in the range of 179 to 180 °C. As for `CCCCc1ccc(C(=O)NCCN(C(C)=O)[C@@H](CCC(N)=O)C(=O)O)nc1`, the melting point was 156 to 158 °C. As for `CC(C)CNS(=O)(=O)c1ccc2c(c1)C=C(C(=O)O)C(C(F)(F)F)O2` (configuration not stated), the figure is 191 to 192 °C; as for `CC(C)(C)[C@@H](CO)NC(=O)[C@@H](CC(=O)O)n1ccc(-c2ccc(-c3ccncc3)cc2)c1`, 192 to 194 °C.

The record behind these values is a melting point compilation (Tetko et al.; mined from patent text by program, amines drawn as free bases though some values may be those of a salt).
